Where no end group is shown, it is not given here.

This assay deals with RyR2 (Rattus norvegicus, UniProt B0LPN4). Nature of the assay: Steady-state F-DPc10 binding at the Z-line of saponin-permeabilized myocytes (confocal). The arrangement: endogenous in cells; host or cells: saponin-permeabilized adult rat ventricular myocytes. Here is the method:
Rat ventricular myocytes were isolated and permeabilized as previously described (Li et al., Circ Res, 2002; 90:309-316). All procedures were performed according to the Guiding Principles in the Care and Use of the Animals and were approved by the Council of American Physiological Society. DPc10, FKBP12.6, and CaM were labeled at specific sites with small fluorescence probes, similar to our previous studies (Guo et al., Circ Res, 2010; 106:1743-1752; Cornea et al., PNAS USA, 2009; 106:6128-6133; Guo et al., Biophys J, 2011; 101:2170-2177).
Confocal images was measured using a Biorad RADIANCE2100™ laser scanning confocal microscope equipped with an Argon ion laser, Green HeNe laser and with a Nikon Fluo x40 oil lens. FRET (fluorescence resonance energy transfer) experiments between CaM and DPc10, and FKBP12.6 and DPc10 were performed using an Olympus FV1000 confocal microscope. All experiments were done at room temperature.
Myocytes were exposed to […] F-DPc10, with intracellular [Ca^2+] ([Ca^2+]i) set at 50 nmol/L. F-DPc10 fluorescence is highest at the Z-lines, where RyR2 is concentrated, forming a typical cross-striated pattern. The difference between fluorescence intensity at the Z-line (Fz) and M-line (FM) is taken to represent [F-DPc10] specifically bound at the myocyte Z-line. We calibrated the bound [F-DPc10] in permeabilized myocytes using the linear relationship between F-DPc10 fluorescence and bath [F-DPc10] (FIG. 7B). […] To further test whether this Z-line-associated F-DPc10 represents RyR2-bound F-DPc10, we measured FRET between FKBP12.6 (known to specifically bind to RyR2 with subnanomolar affinity) (Guo et al., Circ Res, 2010; 106:1743-1752) and F-DPc10. […] Donor (AF568-FKBP12.6) fluorescence at the Z-line was quenched by HF647-DPc10, but the M-line signal was not (FIG. 9B). […]

RyR2, sequence (B0LPN4 whole entry): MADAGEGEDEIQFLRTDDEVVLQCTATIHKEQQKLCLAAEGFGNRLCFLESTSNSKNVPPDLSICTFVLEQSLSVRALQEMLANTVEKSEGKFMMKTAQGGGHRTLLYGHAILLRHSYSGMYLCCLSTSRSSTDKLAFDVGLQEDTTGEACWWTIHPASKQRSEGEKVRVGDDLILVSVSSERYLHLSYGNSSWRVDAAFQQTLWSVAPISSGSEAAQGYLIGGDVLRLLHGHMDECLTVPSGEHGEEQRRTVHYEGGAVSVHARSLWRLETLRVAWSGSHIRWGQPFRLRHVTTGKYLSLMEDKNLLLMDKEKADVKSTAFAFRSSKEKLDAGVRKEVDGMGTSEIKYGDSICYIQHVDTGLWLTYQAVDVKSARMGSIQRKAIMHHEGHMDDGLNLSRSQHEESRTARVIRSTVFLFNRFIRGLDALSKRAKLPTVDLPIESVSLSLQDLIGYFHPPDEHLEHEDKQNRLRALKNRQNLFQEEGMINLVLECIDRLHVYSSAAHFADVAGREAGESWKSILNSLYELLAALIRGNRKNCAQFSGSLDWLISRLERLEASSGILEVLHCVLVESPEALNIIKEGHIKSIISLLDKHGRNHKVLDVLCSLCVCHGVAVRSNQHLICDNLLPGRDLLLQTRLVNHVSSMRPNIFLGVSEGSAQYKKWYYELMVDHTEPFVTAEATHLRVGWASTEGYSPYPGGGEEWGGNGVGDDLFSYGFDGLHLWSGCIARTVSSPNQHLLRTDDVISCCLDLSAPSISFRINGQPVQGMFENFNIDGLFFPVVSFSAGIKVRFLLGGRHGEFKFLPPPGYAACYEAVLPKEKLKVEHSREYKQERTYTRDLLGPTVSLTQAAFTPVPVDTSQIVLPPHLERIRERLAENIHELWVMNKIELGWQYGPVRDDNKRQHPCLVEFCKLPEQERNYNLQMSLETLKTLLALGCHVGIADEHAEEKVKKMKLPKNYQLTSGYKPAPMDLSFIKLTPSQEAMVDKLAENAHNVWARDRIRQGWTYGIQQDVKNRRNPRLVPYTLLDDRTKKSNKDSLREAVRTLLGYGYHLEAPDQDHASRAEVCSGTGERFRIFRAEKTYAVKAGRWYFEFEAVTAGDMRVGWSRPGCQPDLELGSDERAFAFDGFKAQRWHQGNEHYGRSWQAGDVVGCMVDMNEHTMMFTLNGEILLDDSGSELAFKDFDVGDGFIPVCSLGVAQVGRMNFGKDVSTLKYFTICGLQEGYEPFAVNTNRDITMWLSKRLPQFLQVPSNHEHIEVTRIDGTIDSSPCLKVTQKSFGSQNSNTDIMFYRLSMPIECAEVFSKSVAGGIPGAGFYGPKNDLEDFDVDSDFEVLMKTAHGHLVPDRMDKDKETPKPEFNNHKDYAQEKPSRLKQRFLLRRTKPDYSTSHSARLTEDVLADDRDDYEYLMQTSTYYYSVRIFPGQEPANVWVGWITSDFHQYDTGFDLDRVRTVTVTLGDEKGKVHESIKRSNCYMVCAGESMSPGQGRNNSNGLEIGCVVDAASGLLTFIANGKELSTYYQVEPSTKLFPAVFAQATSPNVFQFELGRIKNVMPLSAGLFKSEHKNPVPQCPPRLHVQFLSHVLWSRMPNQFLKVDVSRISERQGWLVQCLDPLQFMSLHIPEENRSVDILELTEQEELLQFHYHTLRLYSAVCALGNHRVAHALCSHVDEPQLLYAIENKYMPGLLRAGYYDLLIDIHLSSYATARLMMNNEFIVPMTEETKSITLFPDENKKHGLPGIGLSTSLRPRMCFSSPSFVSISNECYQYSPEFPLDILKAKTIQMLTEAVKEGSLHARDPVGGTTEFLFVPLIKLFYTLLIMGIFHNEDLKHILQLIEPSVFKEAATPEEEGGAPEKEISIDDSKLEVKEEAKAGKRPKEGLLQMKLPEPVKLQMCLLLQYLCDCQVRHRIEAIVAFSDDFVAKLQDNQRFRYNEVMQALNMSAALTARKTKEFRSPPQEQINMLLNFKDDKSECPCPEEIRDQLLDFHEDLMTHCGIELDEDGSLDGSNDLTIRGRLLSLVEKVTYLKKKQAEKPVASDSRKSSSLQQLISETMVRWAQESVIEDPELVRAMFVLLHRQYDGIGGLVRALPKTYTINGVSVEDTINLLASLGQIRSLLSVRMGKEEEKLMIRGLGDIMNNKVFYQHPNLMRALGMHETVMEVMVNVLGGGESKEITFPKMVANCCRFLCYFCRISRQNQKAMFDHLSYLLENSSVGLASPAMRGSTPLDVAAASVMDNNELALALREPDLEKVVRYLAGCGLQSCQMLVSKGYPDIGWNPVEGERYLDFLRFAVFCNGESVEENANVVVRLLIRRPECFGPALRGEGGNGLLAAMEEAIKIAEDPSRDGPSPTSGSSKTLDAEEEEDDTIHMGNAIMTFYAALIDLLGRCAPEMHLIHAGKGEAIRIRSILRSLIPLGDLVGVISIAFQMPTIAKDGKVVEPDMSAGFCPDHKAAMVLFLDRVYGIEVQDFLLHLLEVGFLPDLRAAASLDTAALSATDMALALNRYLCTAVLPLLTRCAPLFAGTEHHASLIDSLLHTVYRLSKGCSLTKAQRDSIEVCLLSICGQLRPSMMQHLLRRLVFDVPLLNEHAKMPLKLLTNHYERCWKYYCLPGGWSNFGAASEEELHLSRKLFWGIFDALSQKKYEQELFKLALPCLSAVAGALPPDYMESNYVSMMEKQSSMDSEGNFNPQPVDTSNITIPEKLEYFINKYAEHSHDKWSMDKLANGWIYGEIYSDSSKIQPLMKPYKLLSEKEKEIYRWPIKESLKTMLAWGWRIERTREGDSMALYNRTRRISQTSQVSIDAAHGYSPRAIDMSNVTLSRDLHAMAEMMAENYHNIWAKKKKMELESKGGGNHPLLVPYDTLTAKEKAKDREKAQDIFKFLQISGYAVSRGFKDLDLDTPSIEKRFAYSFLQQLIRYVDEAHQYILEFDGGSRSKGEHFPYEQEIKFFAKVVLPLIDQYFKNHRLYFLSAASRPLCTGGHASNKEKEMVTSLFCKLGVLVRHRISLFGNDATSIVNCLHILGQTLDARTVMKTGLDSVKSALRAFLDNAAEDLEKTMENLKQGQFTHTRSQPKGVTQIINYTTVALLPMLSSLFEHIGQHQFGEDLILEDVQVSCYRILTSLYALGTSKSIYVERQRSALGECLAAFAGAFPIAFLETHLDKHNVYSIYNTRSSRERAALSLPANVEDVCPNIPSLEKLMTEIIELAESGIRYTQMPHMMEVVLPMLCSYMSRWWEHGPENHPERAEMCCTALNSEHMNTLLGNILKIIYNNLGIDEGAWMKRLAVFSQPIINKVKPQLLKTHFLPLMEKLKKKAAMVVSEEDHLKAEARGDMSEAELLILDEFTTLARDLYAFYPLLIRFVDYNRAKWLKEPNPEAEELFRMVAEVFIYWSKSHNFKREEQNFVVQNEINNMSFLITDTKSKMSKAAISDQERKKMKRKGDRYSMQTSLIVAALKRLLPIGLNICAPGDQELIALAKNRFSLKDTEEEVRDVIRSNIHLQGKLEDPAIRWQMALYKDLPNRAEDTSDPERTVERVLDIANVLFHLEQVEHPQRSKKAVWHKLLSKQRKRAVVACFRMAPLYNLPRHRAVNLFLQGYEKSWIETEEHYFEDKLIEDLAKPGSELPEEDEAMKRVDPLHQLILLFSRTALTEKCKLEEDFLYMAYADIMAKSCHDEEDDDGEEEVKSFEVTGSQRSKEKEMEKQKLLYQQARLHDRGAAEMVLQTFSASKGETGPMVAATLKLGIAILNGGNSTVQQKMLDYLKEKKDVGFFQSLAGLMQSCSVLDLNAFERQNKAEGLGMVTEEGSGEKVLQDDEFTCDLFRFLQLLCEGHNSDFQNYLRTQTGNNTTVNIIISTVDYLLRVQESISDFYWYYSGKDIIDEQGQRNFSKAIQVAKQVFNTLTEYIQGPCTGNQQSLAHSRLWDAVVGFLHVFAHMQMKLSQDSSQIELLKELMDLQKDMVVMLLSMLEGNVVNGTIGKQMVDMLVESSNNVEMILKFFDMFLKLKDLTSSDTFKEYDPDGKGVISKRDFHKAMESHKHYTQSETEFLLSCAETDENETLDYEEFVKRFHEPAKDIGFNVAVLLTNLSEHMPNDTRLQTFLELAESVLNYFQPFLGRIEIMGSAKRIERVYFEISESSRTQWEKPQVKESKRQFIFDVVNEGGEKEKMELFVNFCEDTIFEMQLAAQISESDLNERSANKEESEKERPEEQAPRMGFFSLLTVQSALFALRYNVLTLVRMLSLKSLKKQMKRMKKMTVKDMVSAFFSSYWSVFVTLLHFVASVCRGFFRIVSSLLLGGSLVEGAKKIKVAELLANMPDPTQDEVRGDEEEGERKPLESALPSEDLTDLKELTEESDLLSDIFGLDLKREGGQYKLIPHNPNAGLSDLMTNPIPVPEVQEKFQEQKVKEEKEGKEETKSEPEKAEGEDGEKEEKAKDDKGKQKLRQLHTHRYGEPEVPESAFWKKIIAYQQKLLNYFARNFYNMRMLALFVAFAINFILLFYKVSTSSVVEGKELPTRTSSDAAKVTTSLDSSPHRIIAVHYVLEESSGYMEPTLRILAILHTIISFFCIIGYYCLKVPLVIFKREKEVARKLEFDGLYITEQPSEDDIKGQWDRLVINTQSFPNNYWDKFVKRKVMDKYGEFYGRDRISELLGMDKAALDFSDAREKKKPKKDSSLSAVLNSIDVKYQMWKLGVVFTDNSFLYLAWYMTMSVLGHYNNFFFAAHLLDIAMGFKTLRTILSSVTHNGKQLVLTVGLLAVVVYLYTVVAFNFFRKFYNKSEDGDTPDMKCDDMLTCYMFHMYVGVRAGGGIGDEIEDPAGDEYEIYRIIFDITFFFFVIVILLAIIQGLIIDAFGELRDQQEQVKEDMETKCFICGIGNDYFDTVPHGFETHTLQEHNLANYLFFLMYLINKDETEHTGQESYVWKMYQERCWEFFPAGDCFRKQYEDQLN

The term Kd denotes the constant that tells how readily two partners part at equilibrium. High values mean a looser complex, low ones a tighter complex. The sequence “GFCPDHKAAMVLFLDRVYGIEVQDFLLHLLEVGFLP [DPc10]” came in with a dissociation constant Kd of roughly 500 nM. Also, the Bmax value (summary in Discussion) turned out to be 1.6 µmol/L.

The values above are taken from US10281476B2, “Methods to identify modulators of RyR calcium channels” (REGENTS OF THE UNIVERSITY OF MINNESOTA, priority 2013, dated 2019).
